From patent publication US20260284091A1, “IMIDAZOLE LOADED GLYCYRRHIZIC ACID HYDROGELS” (KATHOLIEKE UNIVERSITEIT LEUVEN, priority 2023, published 2026) come the findings set out here.

SMILES strings stand for the structures.

Holding throughout (assay): Growth inhibition and biocidal activity evaluation of glycyrrhizic acid hydrogels
Assay [1] deals with Streptococcus pyogenes LMG 14237. The class given is cell-based. The source says:
(§1) Escherichia coli UTI89, Pseudomonas aeruginosa LMG9009, Staphylococcus aureus ATCC6538, Klebsiella pneumoniae ATCC13883, Klebsiella aerogenes ATCC13048, Acinetobacter baumannii RD5SR3. Enterococcus faecalis LMG8148, Streptococcus pyogenes LMG 14237 and clinical isolates of a Staphylococcus epidermidis and a methicillin resistant S. aureus (MRSA), isolated from osteomyelitis patients were used. Prior to the experiments, all strains, except S. pyogenes were inoculated in Lysogeny broth (LB) and incubated overnight on 37° C. (200 rpm). Overnight cultures of S. pyogenes were grown micro-aerophilic in Brain-Heart infusion broth (BHI). Thereafter, the bacteria were normalized to roughly 5*10^5 CFU mL^−1. Lysogeny broth (LB; 10 g L^−1 NaCl, 10 g L^−1 Tryptone, 5 g L^−1 Yeast Extract) was used to create overnight cultures (ONC). Mueller Hinton Broth (MHB; 21 g L^−1 MHB) was used for the minimal inhibitory concentration (MIC) assays for all strain except S. pyogenes. For this strain, BHI was used. If LB agar, BHI agar or MHB agar was needed, 15 g L^−1 of bacteriological agar was added. MHB or BHI batches with varying pH were made by adding HCl or NaOH to acidify or alkalify the medium to the desired pH-value, respectively. Three different formulations of the glycyrrhizic acid hydrogels were made in dH2O:
(§2) (i) Hydrogel C with pH=3, (ii) Hydrogel B with pH=3.8 and (iii) Hydrogel A with pH=4.2. pH was measured at 70° C. and varied using HCl or NaOH to acidify or alkalify the formulation to the desired pH-value. Moreover, different concentration batches (mass by volume) were used for the hydrogels: 2.5%, 5%, 7,5%, 10%, 15% and 20%. Glycyrrhizic acid in solution—not a hydrogel—was prepared at pH 7,4.
(§3) To determine the growth inhibiting activity of glycyrrhizic acid in solution, 100 μL of different 1:2 dilutions of a 100 mg/mL stock solution of glycyrrhizic acid in MHB were added to the wells of a 96 well microtiter plate, after which 100 μL of a 5*10^5 CFU mL^−1 bacteria suspension in MHB was added to each well.
(§4) To determine the growth inhibiting activity of the glycyrrhizic acid hydrogels, the hydrogel was liquefied by heating to 70° C. When liquid, varying volumes of the liquid hydrogel (80 μL to 160 μL) were pipetted into a 96 well microtiter plate. After the hydrogel solidified, 120 μL of a 5*10^5 CFU mL^−1 bacteria suspension in MHB was added on top of the hydrogel.
(§5) To avoid evaporation, the plates were sealed using a membrane (Greiner Bio-one NV). After 24 hours of incubation (37° C., 200 rpm), the OD595 was measured and relative OD595 was calculated by dividing the OD595 by the average OD595 of the growth control (=growth of cells in MHB without glycyrrhizic acid).
(§6) To determine the biocidal activity of glycyrrhizic acid in solution and in hydrogel, at the end of the growth inhibition assay (see above), after incubation, 100 μL of the medium on top of the hydrogel was diluted 10 times in Phosphate saline buffer (PBS; 1.24 g L^−1 K2HPO4. 0.39 g L^−1 KH2PO4. 8.8 g L^−1 NaCl) and plated out on MHB agar plates by spreading 100 μL of the dilution. After incubating overnight at 37° C., colonies were counted and the colony forming units were determined.

The test system of assay [2] is Enterococcus faecalis LMG8148. It is filed as cell-based. The note with it: bactericidal = 3 LOG reduction compared to the inoculum.
Source text: as §1, §2, §3, §4, §5, §6

Another assay concerns Escherichia coli UTI89. It is filed as cell-based. The settings on record: E. coli; bactericidal = 3 LOG reduction compared to the inoculum.
Source text: as §1, §2, §3, §4, §5, §6

Assay [3] concerns Pseudomonas aeruginosa LMG9009. It is filed as cell-based. The settings on record: P. aeruginosa; bactericidal = 3 LOG reduction compared to the inoculum.
Source text: as §1, §2, §3, §4, §5, §6

Assay [4] deals with Klebsiella pneumoniae ATCC13883. It is filed as cell-based. The note with it: K. pneumoniae; bactericidal = 3 LOG reduction compared to the inoculum.
Source text: as §1, §2, §3, §4, §5, §6

Assay [5] has as its system Staphylococcus epidermidis. The class given is cell-based. The note with it: S. epidermidis; bactericidal = 3 LOG reduction compared to the inoculum.
Source text: as §1, §2, §3, §4, §5, §6

In assay [6] the test system is Acinetobacter baumannii RD5SR3. The class given is cell-based. The settings on record: A. baumannii; bactericidal = 3 LOG reduction compared to the inoculum.
Source text: as §1, §2, §3, §4, §5, §6

The subject of assay [7] is Klebsiella aerogenes ATCC13048. The class given is cell-based. The settings on record: K. aerogenes; bactericidal = 3 LOG reduction compared to the inoculum.
Source text: as §1, §2, §3, §4, §5, §6

Another assay has as its system MRSA. It is filed as cell-based, Methicillin-resistant Staphylococcus aureus. The note with it: bactericidal = 3 LOG reduction compared to the inoculum. The source says:
Escherichia coli UTI89, Pseudomonas aeruginosa LMG9009, Staphylococcus aureus ATCC6538, Klebsiella pneumoniae ATCC13883, Klebsiella aerogenes ATCC13048, Acinetobacter baumannii RD5SR3. Enterococcus faecalis LMG8148, Streptococcus pyogenes LMG 14237 and clinical isolates of a Staphylococcus epidermidis and a methicillin resistant S. aureus (MRSA), isolated from osteomyelitis patients were used. Prior to the experiments, all strains, except S. pyogenes were inoculated in Lysogeny broth (LB) and incubated overnight on 37° C. (200 rpm). Overnight cultures of S. pyogenes were grown micro-aerophilic in Brain-Heart infusion broth (BHI). Thereafter, the bacteria were normalized to roughly 5*10^5 CFU mL^−1. Lysogeny broth (LB; 10 g L^−1 NaCl, 10 g L^−1 Tryptone, 5 g L^−1 Yeast Extract) was used to create overnight cultures (ONC). […]
(i) Hydrogel C with pH=3, (ii) Hydrogel B with pH=3.8 and (iii) Hydrogel A with pH=4.2. pH was measured at 70° C. and varied using HCl or NaOH to acidify or alkalify the formulation to the desired pH-value. […]
To avoid evaporation, the plates were sealed using a membrane (Greiner Bio-one NV). After 24 hours of incubation (37° C., 200 rpm), the OD595 was measured and relative OD595 was calculated by dividing the OD595 by the average OD595 of the growth control (=growth of cells in MHB without glycyrrhizic acid). […]

Consider `CC1(C)[C@@H](O[C@H]2O[C@H](C(=O)O)[C@@H](O)[C@H](O)[C@H]2O[C@@H]2O[C@H](C(=O)O)[C@@H](O)[C@H](O)[C@H]2O)CC[C@]2(C)[C@H]3C(=O)C=C4[C@@H]5C[C@@](C)(C(=O)O)CC[C@]5(C)CC[C@@]4(C)[C@]3(C)CC[C@@H]12` [GLY in solution, glycyrrhizic acid], for which, in [1] (50 mg/mL in solution, pH 7.0, only one of nine pathogens tested that was inhibited), the growth inhibition result is “inhibited”. For the same molecule, the “antibacterial effect (no effect, bacteriostatic, bactericidal)” value in [1] (Streptococcus, bactericidal = 3 LOG reduction compared to the inoculum) is on record as “Bacteriostatic”; in [2] it was “No effect”; in the assay with Escherichia coli UTI89 it was “No effect”; in assay [3] it was “No effect”; in assay [4], “No effect”; in [5], “No effect”. The “antibacterial effect (no effect, bacteriostatic, bactericidal)” value (in [6]; in [7]; in the assay with MRSA) was “No effect” each time.
